Measured values as given in PMC4183655, “Discovery and Optimization of Small-Molecule Ligands for the CBP/p300 Bromodomains” (Journal of the American Chemical Society, 2014).
Read-outs that look alike come from different tables or passages of the source.

Columns and labels:
[1] = target: T1, BRD4(1) (Homo sapiens, UniProt O60885); experiment: Isothermal titration calorimetry (ITC); settings: for ITC 9T∆S, BRD4(1): At T = 298.15 K; for Selectivity for CBP over BRD4(1): from ITC Kd values
[2] = target: T2, CBP (Homo sapiens, UniProt Q92793); experiment: Isothermal titration calorimetry (ITC); settings: for ITC 9T∆S, CBP: At T = 298.15 K
[3] = target: CBP BRD; settings: cited from earlier work
[4] = tested on: GFP-tagged 3 × CBP BRD construct; experiment: Fluorescence recovery after photo-bleaching (FRAP) assay; settings: HeLa cells
[5] = tested on: p53–CBP interaction; settings: at 50 μM; cited from earlier work
[6] = target: T1, BRD4(1); experiment: DSF (ΔTm) thermal stability assay; format: binding; settings: compound concentration 10 μM, mean ± SEM (number of measurements)
[7] = target: T2, CBP; experiment: DSF (ΔTm) thermal stability assay; format: binding; settings: compound concentration 10 μM, mean ± SEM (number of measurements)
[8] = target: T1, BRD4(1); experiment: Peptide displacement AlphaScreen; format: binding
[9] = target: T2, CBP; experiment: Peptide displacement AlphaScreen; format: binding
[10] = tested on: p53-induced p21 activation; settings: luciferase reporter-gene assay; read-out: Inhibition of p53-induced p21 activation IC50; cited from earlier work
[11] = target: T3, ATAD2 (Homo sapiens, UniProt Q6PL18); experiment: Peptide displacement AlphaScreen; format: binding
T3 construct: using recombinant BRDs as surrogates of full-length protein
T3 sequence (Q6PL18 980-1092 limits assumed): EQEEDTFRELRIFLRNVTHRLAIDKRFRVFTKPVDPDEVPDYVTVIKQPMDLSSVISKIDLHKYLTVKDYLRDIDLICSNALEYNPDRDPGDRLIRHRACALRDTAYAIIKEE

[12] = target: T4, p300 (Homo sapiens, UniProt Q09472); experiment: Isothermal titration calorimetry (ITC); settings: from ITC Kd values
T4 sequence (Q09472 1049-1156 limits assumed): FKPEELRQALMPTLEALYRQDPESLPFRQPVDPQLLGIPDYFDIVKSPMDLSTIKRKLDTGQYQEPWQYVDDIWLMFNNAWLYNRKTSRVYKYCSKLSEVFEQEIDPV

[13] = target: T3, ATAD2; experiment: DSF (ΔTm) thermal stability assay; format: binding; settings: compound 10 µM
[14] = mean ± SEM (number of measurements), read-out: CBP AlphaScreen pIC50 (converted)

T2 sequence (Q92793 1085-1192 limits assumed): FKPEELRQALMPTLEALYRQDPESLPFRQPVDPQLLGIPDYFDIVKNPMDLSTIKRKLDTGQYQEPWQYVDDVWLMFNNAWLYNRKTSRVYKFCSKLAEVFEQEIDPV

Row | ITC N (molar binding ratio of the ligand-protein interaction), BRD4(1) [1] | ITC ∆G, BRD4(1) [1] [kcal/mol] | ITC ∆H, BRD4(1) [1] [kcal/mol] | ITC 9T∆S, BRD4(1) [1] [kcal/mol] | Kd ([1]; ITC Ka, BRD4(1)) [nM] | ITC N (molar binding ratio of the ligand-protein interaction), CBP [2] | ITC ∆G, CBP [2] [kcal/mol] | ITC ∆H, CBP [2] [kcal/mol] | ITC 9T∆S, CBP [2] [kcal/mol] | Kd ([2]; ITC Ka, CBP) [nM] | ΔTm at 10 µM [7] [°C] | Compound | further results
1 | 0.84 ± 0.0113 | -8.30 | -7.46 ± 0.127 | -0.844 | 532 | 0.88 ± 0.00202 | -10.0 | -9.59 ± 0.0406 | -0.420 | 26.2 | – | Cc1noc(C)c1-c1ccc2c(c1)nc(CCn1ccc3ccccc31)n2C[C@@H](C)N1CCOCC1 [Compound 60] | –
2 | – | – | – | – | – | – | – | – | – | – | – | COc1ccc2c(c1)N(CCCNC(=O)c1cccc3c1N[C@H](C)C(=O)N3)CCC2 [Compound 4] | Kd [3]: 390 nM
3 | – | – | – | – | – | – | – | – | – | – | – | O=C(CCCCCCC(=O)Nc1ccccc1)NO [SAHA, reference compound] | FRAP half-time of fluorescence recovery (t1/2), GFP-tagged 3× CBP BRD ([4]; DMSO + SAHA, no BRD inhibitor): 0.79 s
4 | – | – | – | – | – | – | – | – | – | – | – | CC(=O)n1c2c(c3ccccc31)CCCC2=O [Compound 1] | Kd [3]: 19600 nM; Effect on the p53–CBP interaction in a competition assay [5]: block
5 | – | – | – | – | – | – | – | – | – | – | 2 | COc1ccc(CCc2cc3cc(-c4c(C)noc4C)ccc3n2CCN2CCOCC2)cc1Cl [Compound 40] | ΔTm at 10 µM [6]: < 1 °C
6 | – | – | – | – | – | – | – | – | – | – | 6.6 | Cc1noc(C)c1-c1ccc2c(c1)nc(CCc1ccccc1)n2CCN1CCSCC1 [Compound 20] | ΔTm at 10 µM [6]: 3.9 °C; IC50 [8]: 9500 nM; IC50 ([9]; read-out: AlphaScreen IC50 CBP): 440 nM
7 | – | – | – | – | – | – | – | – | – | – | – | Cc1cc(/N=N/c2cc(S(=O)(=O)O)c(C)cc2C)c(N)cc1O [Compound 2] | IC50 [10]: 5000 nM
8 | – | – | – | – | – | – | – | – | – | – | 6.5 | Cc1noc(C)c1-c1ccc2c(c1)nc(CCc1ccccc1)n2CCN1CCNCC1 [Compound 19] | ΔTm at 10 µM [6]: 4 °C; IC50 [8]: 7500 nM; IC50 ([9]; read-out: AlphaScreen IC50 CBP): 750 nM
9 | 0.645 ± 0.00594 | -8.10 | -9.34 ± 0.118 | 1.240 | 662 | 0.703 ± 0.00135 | -9.94 | -9.30 ± 0.0342 | -0.638 | 30.2 | – | Cc1noc(C)c1-c1ccc2c(c1)nc(CCc1nc3ccccc3s1)n2CCN1CCOCC1 [Compound 35] | –
10 | 0.674 ± 0.00495 | -8.35 | -8.02 ± 0.0815 | -0.331 | 478 | 0.887 ± 0.00152 | -9.98 | -9.63 ± 0.0319 | -0.346 | 27.7 | – | Cc1noc(C)c1-c1ccc2c(c1)nc(CCc1ccc(F)cc1)n2CCN1CCOCC1 [Compound 31] | –
11 | – | – | – | – | – | – | – | – | – | – | 3.9 | Cc1noc(C)c1-c1ccc2c(c1)nc(CCc1ccccc1)n2CCN1CCOCC1 [Compound 17] | ΔTm at 10 µM [6]: 2.1 °C; DSF ΔTm BRD4(1) ([6]; 10 µM): 2.7 °C; IC50 [8]: 9800 nM; DSF ΔTm CBP ([7]; 10 µM): 6.5 °C; IC50 [11]: 42000 nM; Kd ([1]; ITC Kd BRD4(1), 15 °C): 950 ± 44 nM; Selectivity for CBP over BRD4(1) [1]: 3.0 fold; Selectivity for p300 over BRD4(1) [12]: 2.7 fold; ΔTm at 10 µM [13]: 0.16 °C; IC50 [9, 14]: 158 nM; IC50 ([9]; read-out: AlphaScreen IC50 CBP): 820 nM; FRAP half-time of fluorescence recovery (t1/2), GFP-tagged 3× CBP BRD ([4]; SAHA-treated, compound 0.1 μM): 0.66 s
12 | – | – | – | – | – | – | – | – | – | – | 7.1 | Cc1noc(C)c1-c1ccc2c(c1)nc(CCc1cccc(F)c1)n2CCN1CCOCC1 [Compound 30] | –
13 | 0.862 ± 0.00663 | -8.09 | -9.21 ± 0.0912 | 1.12 | 685 | 1.01 ± 0.00517 | -8.58 | -12.5 ± 0.0855 | 3.94 | 239 | ~10 | Cc1noc(C)c1-c1ccc2c(c1)nc(CCn1ccc3ccccc31)n2C[C@H](C)N1CCOCC1 [Compound 61] | Kd ([1]; ITC Kd BRD4(1), 15 °C): 530 ± 74 nM; Selectivity for CBP over BRD4(1) [1]: 20-fold; IC50 [9, 14]: < 100 nM; Kd ([2]; ITC Kd CBP, 15 °C): 26 ± 2.6 nM
14 | 0.987 ± 0.0033 | -8.24 | -8.74 ± 0.0402 | 0.501 | 546 | 1.02 ± 0.00208 | -9.63 | -9.70 ± 0.0399 | 0.0674 | 49.5 | 7.4 | Cc1ccc(CCc2nc3cc(-c4c(C)noc4C)ccc3n2CCN2CCOCC2)cc1 [Compound 25] | –
